Experiment [1] deals with PBMC (peripheral blood mononuclear cells). Description: two-way mixed lymphocyte reaction (MLR). In kind it is cell-based, human. The source says:
Various in vitro assays can be used to measure effects of the inventive compounds to module immune activity and have antitumor activity using a variety of cellular types. For example, a mixed lymphocyte reaction (MLR) provides a valuable screening tool to determine biological activity of each inventive compound. In the MLR, PBMCs (peripheral blood mononuclear cells) are obtained by drawing whole blood from healthy volunteers in a heparinized container and diluted with an equal volume of hanks balanced salt solution (HBSS). This mixture is layered on a sucrose density gradient, such as a Ficoll-Hypaque® gradient (specific gravity 1.08), and centrifuged at 1000×g for 25 minutes at room temperature or cooler. PBMC are obtained from a band at a plasma-Ficoll interface, separated and washed at least twice in a saline solution, such as HBSS. Contaminating red cells are lysed, such as by ACK lysis for 10 min at 37° C., and the PBMCs are washed twice in HBSS. The pellet of purified PBMCs is resuspended in complete medium, such as RPMI 1640 plus 20% human inactivated serum. Proliferative response of PBMC to allogeneic stimulation is determined in a two-way MLR performed in a 96-well microliter plate. […] At the conclusion of the incubation tritiated thymidine is added (for example, 1 μCi/well of 40 to 60 Ci/mmole) and proliferation determined by liquid scintillation counting. […]

In a further experiment the test system is thymocytes. Description: thymocyte costimulator assay (ConA and IL-1α or IL-2). In kind it is cell-based, mice. Conditions: drug added two hours prior to activation. As for the experimental part: CT1501R was added to the cells at the doses indicated two hours prior to activation with ConA and IL-1α or IL-2. Background counts were less than 200 cpm.
A thymocyte costimulator assay is conducted to evaluate the inventive compounds to inhibit activation and proliferation of thymocytes caused by stimulation with Con A and interleukin-1 (IL-1), or […]. Thymuses are obtained from mice (e.g., female Balb/C mice) and the thymuses are removed and dissociated into culture media (e.g., RPMI 1640 without serum supplementation). The dissociated thymus tissue and cell suspension is transferred to centrifuge tubes and allowed to settle, washed with HBSS and resuspended in serum-supplemented culture media (e.g., RPMI 1640 with 10% fetal calf serum). Any contaminating red cells are lysed, and viable cells are resuspended and counted. Thymocytes are plated (e.g., 96-well plates at a density of 2×10^5 cells/well) and a stimulating agent, such as Con A, IL-1 (e.g., IL-1α) or IL-2 is added to the well. The cells are incubated for 4 days at 37 ° C. On the fourth day, the ceils are pulsed with tritiated thymidine and cell proliferation determined. Inventive compounds are added at the time of stimulating agent addition.

For experiment [2], the system named is murine B-cell proliferation. Description: B-cell proliferation assay (anti-mu antibody and/or IL-4). In kind it is cell-based. Conditions: stimulated by anti-mu antibody crosslinked and/or IL-4. How it is done:
A B-cell proliferation assay determines the effect of the inventive compounds on inhibiting proliferation of stimulated B-cells, stimulated by an anti-mu antibody ([…]), IL-4 or PMA (2.5 nM). Ramos B-cell tumor cells or murine splenocytes can be incubated with a stimulating agent, an inventive compound and tritiated thymidine to measure inhibition of cell proliferation caused by the stimulating agent.

A further experiment has as its system TNF-α. Description: mouse plasma TNF-α ELISA after endotoxin. The experiment is classed as in vivo, mice. How it is done: Each point represents the average of two experiments compiled from the average of duplicate ELISA measurements with each experimental point representing pooled plasma from three mice.
For ELISA measurements of cytokine levels in plasma, blood was collected by retro-orbital or cardiac puncture of anesthetized mice, immediately centrifuged and the EDTA plasma stored at -70° C. Particulate free plasma was thawed on ice and cytokine levels determined utilizing commercial ELISA assays with normal mouse plasma used to generate standard curves. Murine tumor necrosis factor-α and interleukin-1α kits were purchased from Genzyme (Cambridge, Mass.) and Endogen (Boston, Mass.), respectively. Each data point was an average of two ELISA measurements made from EDTA serum pooled from three mice. The data summarized in Table 3 were compiled from two independent experiments; data from Table 4 and 5 were from single experiments of three mice per data point.
Levels of TNF-α, IL-1α and IL-6 were measured in the plasma of mice as a function of time following treatment with S. abortus endotoxin. […] TNF-α levels peaked within 1 hour of treatment of endotoxin (Table 4 and FIG. 6). Treatment of the mice with CT1501R decreased the levels of TNF-α in the EDTA plasma of endotoxin treated mice at all time points measured. […]
In general terms: In an ELISA, binding on a coated surface is turned into a signal by an enzyme label.

Data on 1 compound can be found in patent US5621102A, “Process for preparing enantiomerically pure xanthine derivatives” (Cell Therapeutics, Inc., priority 1995, dated 1997).

Turning to `C[C@@H](O)CCCCn1c(=O)c2c(ncn2C)n(C)c1=O` [CT1501R, (R)-1-(5-hydroxyhexyl)-3,7-dimethylxanthine], the “proliferative response of PBMC to allogeneic stimulation” value in experiment [1] was “showed dose-response activity”. Also, the “inhibition of thymocyte proliferation” value in the experiment with thymocytes is recorded as “inhibited thymocyte proliferation in a dose-response manner”. For the same compound, in experiment [2], the “inhibition of murine B-cell proliferation” value is recorded as “inhibited B-cell proliferation”. Besides, the “decrease of peak plasma TNF-α vs endotoxin only” value is listed as 2.5 fold with TNF-α (0.5 hour post endotoxin) and 2.6 fold in the experiment with TNF-α (1 hour post endotoxin).
